Legend:
[1] = tested on: peripheral blood mononuclear cells (PBMC), T cells; assay: ELISpot assay, IL-5 release (SFC) after stimulation with a-synuclein epitope pools; format: cell-based, human
Description: (§1) Blood from age matched controls and PD patients were obtained and mononuclear cells were isolated by gradient centrifugation.
(§2) Release of the cytokines gamma-interferon, which measures activation of CD4+ and/or CD8+ T cells, and the interleukin, IL-5, which measures activation of CD4+ T cells was measured by ELISpot assay. […] After 22 hours of stimulation at 37 C, the cells were removed and release of cytokines was measured by colorimetric detection of spot-forming cells (SFC). Confirmed release of cytokine is determined by the presence of a minimum of 20 SFC per million cells.
(§3) The binding algorithms in SubAim 1 predict how well the peptides would bind to MHC if present, but not if they are present in patients. To determine this, the presence of T cell response against the candidate antigens by patient blood-derived peripheral blood mononuclear cells (PBMC) is assessed by ELISPOT assays upon stimulation with the peptides. This assay detects and quantifies cytokine release (in this case, IFNγ and IL-5) from specific activated T cells.
(§4) Data were obtained from blood samples (25 ml) from 44 PD patients and 24 age-matched controls. The experiments were conducted blindly. PBMCs from these samples were isolated and exposed to pools comprising the 122 candidate class I and class II antigens and phosphorylated S129 epitopes generated in Subaim 1. For the PBMCs responsive to the pooled peptides, the response was then deconvoluted to identify individual epitopes.
(§5) PMBC fractions are recovered by standard methods with Ficoll gradient and T cells expansion (Oseroff et al., 2010). The methods for the analysis of T cell reactions and measurement of cytokines production using the enzyme-linked immunosorbent spot (ELISPOT) assay are published in analogous experiments to discover antigens in multiple sclerosis (Lolli et al., 2013) and in hay fever allergens (Oseroff et al., 2010). T cell responses are determined by measuring IFNγ and IL-5 release by ELISPOT. Statistical analysis of differences between populations is expected to be non-parametric and analyzed with the U-Mann-Whitney test. If there were a normal distribution of response, which is a priori unlikely as some patients have no T cell response, with an SD=1, 8 patients per group would be required to provide a p>90% that the study detect a >2 fold difference at a two-sided 0.05 significance level.

[2] = tested on: peripheral blood mononuclear cells (PBMC), T cells; assay: ELISpot assay, gamma-interferon release (SFC) after stimulation with a-synuclein epitope pools; format: cell-based, human; conditions: for Pool +: IFNg, Pool Stimulated, number of donors with a positive response, Donors tested 1
Description: as §1, §2, §3, §4, §5

[3] = Patients Summary, PD patients, of donors tested (peptide)
[4] = Patients Summary, PD patients, single peptide
[5] = Patients Summary, Phospho pool peptides
[6] = Patients Summary, Phospho pool peptides, 10 donors tested
[7] = number of donors positive to the single peptide, second 'Pool Stimulated' section (from r296), 12 donors tested
[8] = peptide + / donors tested (peptide), second 'Pool Stimulated' section (from r296), 12 donors tested
[9] = peptides of pool 'Poshpho', 8 donors tested
[10] = peptides of pool 'Poshpho', 8 donors tested, number of donors positive
[11] = single peptide, second 'Pool Stimulated' section (from r296), 12 donors tested
[12] = pool 'Phospho' (phosphorylated peptides)

Substance	IL-g Peptide + (donors positive to the peptide) [1, 3]	IL-g Response Frequency [1, 4]	IL-g Total SFC [1, 4]	IL-g Peptide + [1, 7]	IL-g Response Frequency [1, 8]	IL-g Total SFC [1, 11]	Pool + [2]	IFNg Peptide + (donors positive to the peptide) [2, 3]	IFNg Response Frequency [2, 4]	IFNg Total SFC [2, 4]	IFNg Peptide + [2, 7]	IFNg Response Frequency [2, 8]	IFNg Total SFC [2, 11]	IFNg Avg SFC [2, 4]	also measured
3521.0028 (MPSEEGYQDY; listed as Homo sapiens)	0	0%	0 SFC	0	0%	0 SFC	0	0	0%	0 SFC	0	0%	–	–	IL-g Avg SFC [1, 5]: 350 SFC; IL-g Response Frequency [1, 5]: 20%; IL-g Total SFC [1, 5]: 700.3 SFC; IL-g Peptide + (donors positive to the peptide) [1, 6]: 2; IL-g Avg SFC [1, 9]: 113 SFC; IL-g Response Frequency [1, 9]: 13%; IL-g Total SFC [1, 9]: 113 SFC; IL-g Peptide + [1, 10]: 1; Pool + [2, 12]: 1; IFNg Avg SFC [2, 5]: 420 SFC; IFNg Response Frequency [2, 5]: 30%; IFNg Total SFC [2, 5]: 1260 SFC; IFNg Peptide + (donors positive to the peptide) [2, 6]: 3; IFNg Avg SFC [2, 9]: 40 SFC; IFNg Response Frequency [2, 9]: 13%; IFNg Total SFC [2, 9]: 40 SFC; IFNg Peptide + [2, 10]: 1
3521.0029 (NVGGAVVTGV; listed as Homo sapiens)	0	0%	0 SFC	0	0%	0 SFC	0	0	0%	0 SFC	0	0%	0 SFC	–	–
3521.0031 (YVGSKTKEGV; listed as Homo sapiens)	0	0%	0 SFC	–	–	–	0	1	17%	153 SFC	–	–	–	153 SFC	–
3521.0032 (GAVVTGVTAV; listed as Homo sapiens)	0	0%	0 SFC	0	0%	0 SFC	1	0	0%	0 SFC	0	0%	0 SFC	–	–
3521.0033 (VLYVGSKTKK; listed as Homo sapiens)	3	50%	528 SFC	–	–	–	1	5	83%	1626 SFC	–	–	–	325 SFC	IL-g Avg SFC [1, 4]: 176 SFC
3521.0034 (GVLYVGSKTK; listed as Homo sapiens)	2	33%	284 SFC	–	–	–	1	5	83%	2260 SFC	–	–	–	452 SFC	IL-g Avg SFC [1, 4]: 142 SFC
3521.0035 (SIAAATGFVK; listed as Homo sapiens)	1	25%	1898 SFC	1	50%	536 SFC	1	1	25%	1946 SFC	0	0%	0 SFC	1946 SFC	IL-g Avg SFC [1, 4]: 1898 SFC; IL-g Avg SFC [1, 11]: 536 SFC
3521.0036 (AGSIAAATGF; listed as Homo sapiens)	0	0%	0 SFC	0	0%	0 SFC	0	0	0%	0 SFC	0	0%	0 SFC	–	–
3521.0037 (LYVGSKTKEG; listed as Homo sapiens)	1	17%	754 SFC	–	–	–	0	1	17%	248 SFC	–	–	–	248 SFC	IL-g Avg SFC [1, 4]: 754 SFC
3521.0038 (EMPSEEGYQD; listed as Homo sapiens)	0	0%	0 SFC	–	–	–	0	0	0%	0 SFC	–	–	–	–	IL-g Avg SFC [1, 5]: 620 SFC; IL-g Response Frequency [1, 5]: 10%; IL-g Total SFC [1, 5]: 620 SFC; IL-g Peptide + (donors positive to the peptide) [1, 6]: 1; IL-g Avg SFC [1, 9]: 33 SFC; IL-g Response Frequency [1, 9]: 13%; IL-g Total SFC [1, 9]: 33 SFC; IL-g Peptide + [1, 10]: 1; Pool + [2, 12]: 1; IFNg Avg SFC [2, 5]: 502 SFC; IFNg Response Frequency [2, 5]: 30%; IFNg Total SFC [2, 5]: 1507 SFC; IFNg Peptide + (donors positive to the peptide) [2, 6]: 3; IFNg Avg SFC [2, 9]: 40 SFC; IFNg Response Frequency [2, 9]: 13%; IFNg Total SFC [2, 9]: 40 SFC; IFNg Peptide + [2, 10]: 1
3521.0041 (EGILEDMPVD; listed as Homo sapiens)	0	0%	0 SFC	0	0%	0 SFC	0	0	0%	0 SFC	0	0%	–	–	–
3521.0042 (AGKTKEGVLY; listed as Homo sapiens)	0	0%	0 SFC	0	0%	0 SFC	0	1	13%	31 SFC	0	0%	0 SFC	31 SFC	–
3521.0044 (GVTAVAQKTV; listed as Homo sapiens)	0	0%	0 SFC	0	0%	0 SFC	0	0	0%	0 SFC	0	0%	0 SFC	–	–
3521.0045 (KTKKGVVHGV; listed as Homo sapiens)	0	0%	0 SFC	–	–	–	–	1	17%	133 SFC	–	–	–	133 SFC	–
3521.0047 (IAAATGFVKK; listed as Homo sapiens)	0	0%	0 SFC	0	0%	0 SFC	0	0	0%	0 SFC	0	0%	0 SFC	–	–

From patent US20170184612A1, “USE OF LEUKOCYTES AND NOVEL BIOMARKERS IN THE DIAGNOSIS, CONFIRMATION, AND TREATMENT OF A NEUROLOGICAL DISORDER” (The Trustees of Columbia University in the City of New York, priority 2014, published 2017)
